Tests used:
Thermicanus [1] = experiment: Microbe control test in recycled fiber pulp (white water + recycled packaging board), 24 h contact time; format: cell-based; details: after 24 h at +50° C.; NGS sequencing and total bacterial qPCR; control 3.2*10^7; performic acid 14 mg/l, monochloramine 15 mg/l, mixture in total 15 mg/l, mixture in total 8 mg/l + zinc 7 mg/l
Protocol: White water from a liner machine using recycled fiber was taken and dry, brown, recycled packaging board was homogenized with the water so that the final consistency of fibers was 2.0%. The pulp was divided into portions and biocides and enzyme inhibitor (zinc) were added into the bottles according to the Table 2. pH of the pulp at the beginning of the test was 7.75 and ORP +175 mV. After this the bottles were incubated at +50° C. for 24 hours. At 24 h pH and ORP were measured and samples for DNA analysis were collected. The amount of Thermicanus was quantified as described in examples 1 and 2.
Biocide and enzyme inhibitor treated samples had clearly higher pH and ORP than control sample. Said biocide and/or enzyme inhibitor treatments also decrease the amount of bacteria belonging to the family Thermicanaceae or genus Thermicanus: The control sample contained 3.2*10^7 Thermicanus cells/ml, and the treated samples>90% less, 1.2-2.2*10^6 cells/ml. Thus, in the treated samples both the physical conditions were better and the amount of Thermicanus was lower than in the control sample.

Thermicanus [2] = experiment: Biocide trial on a paper machine using recycled fiber; Thermicanus quantified with specific qPCR
Protocol: The best primer sequences for a qPCR assay specific for Thermicanus were 5′-[…]-3′ (SEQ ID NO: 2) and 5′-[…]-3′ (SEQ ID NO: 3). Allowing maximum 2 mismatches, these primers detect no 16S rRNA gene of other bacterial genera. The length of the PCR product is 236 bp for Thermicanus aegyptius, the only Thermicanus species described thus far. Specific amplification (one peak in qPCR melt curve analysis) was produced from Thermicanus genomic DNA at annealing temperatures 59-63° C. in qPCR master mix with 2.2 mM Mg^2+ (50 mM salt) and SYBR Green.
Besides in silico verifications, the validity of the Thermicanus qPCR assay with the novel primers was verified with 16 board process DNA samples from RCF pulp and white water (FIG. 1). Samples were selected based on sequencing results to be taxonomically diverse, include wide range of Thermicanus, and include communities with close relatives of Thermicanus including Geobacillus (Bacillaceae). SYBR Green qPCR detection chemistry was used with hot-start qPCR mastermix on BioRad CFX96 cycler or thermal cycler, using annealing temperature of 61° C. for stringent hybridization. The Pearson correlation between the NGS and qPCR-derived Thermicanus abundance was 0.993, when total bacteria were quantified based on genomic DNA concentration (FIG. 1A), and 0.997, when total bacteria were quantified based on general bacterial qPCR (FIG. 1B). These very high correlations verify the specificity and validity of the novel Thermicanus qPCR primers for the quantification of Thermicanus in board process samples.
A biocide trial on a paper machine using recycled fiber was ran with monochloramine (MCA). Samples from stock storage and cloudy white water were taken 7 months and 1 day before starting the trial and 3 weeks after starting the MCA trial. The amount of Thermicanus was quantified with Thermicanaceae-specific qPCR as described in Example 3. MCA trial decreased Thermicanus densities in stock storage and white water by ≥99%.

Compound | Thermicanus, cells/ml (Thermicanus [1]) | Thermicanus, white water, cells/ml (Thermicanus [2]; cloudy white water, 3 weeks after start of MCA trial, before trial 2.7*10^8 (7 months) and 2.1*10^8 (1 day)) | decrease of Thermicanus densities (Thermicanus [2]; stock storage and white water, 3 weeks after start of MCA trial versus before trial) | Thermicanus, stock storage, cells/ml (Thermicanus [2]; stock storage, 3 weeks after start of MCA trial, before trial 5.8*10^8 (7 months) and 3.9*10^8 (1 day))
NCl [Monochloramine, monochloramine] | 1.2*10^6 cells/ml | 7.5*10^5 cells/ml | ≥ 99% | 3.8*10^6 cells/ml
O=COO [Performic acid] | 2.0*10^6 cells/ml | – | – | –

Reference: patent publication US20260035753A1, “METHODS OF DETERMINING BACTERIA AND MANUFACTURING A FIBROUS WEB AND TOOLS AND USES RELATED THERETO” (KEMIRA OYJ, priority 2020, published 2026)
